Laboratory results as given in publication PMC12423301, “Astrocytic monoamine oxidase B (MAOB)–gamma-aminobutyric acid (GABA) axis as a molecular brake on repair following spinal cord injury” (Signal Transduction and Targeted Therapy, 2025).

Columns and labels:
[1] = target: hERG (Homo sapiens, UniProt Q12809); experiment: hERG assay; format: biochemical
Description: Protocol No. NB_KDS_ADP1_21 Confidential administration of the test substance to rats at a dose of 50-200 mg/kg daily for 2 weeks, there were no deaths.
As a result of oral administration to rats at doses of 30, 50, 75 and 100 mg/kg once daily for 4 weeks, […]
testis, epididymis and lungs. Renal epithelial hyperplasia and inflammatory cells infiltration in the renal pelvis observed in the male and female dose groups of 75 mg/kg or more, germ cell degeneration/loss and seminiferous tubules atrophy observed in the male dose groups of 75 mg/kg or more, and vacuole/degeneration of outer medullary tubules and basophilic tubules observed in the female dose groups were judged to be adverse effects due to administration of the test substance. […] Accordingly, in repeated administrations of rats for 4 weeks, the NOAEL(No Observed Adverse Effect Level) was determined to be 50 mg/kg/day for males and 30 mg/kg for females. […]
In a pharmacokinetic study, plasma PK parameters were measured after a single oral administration of […]
a result of measuring excretion into urine, feces, expiration, and bile, 6.9% was excreted in urine and 48.5% in feces, respectively, up to 168 hours after administration. Excretion to air through respiration was about 0.0% until 48 hours after administration, and 44.1% of the administered radioactivity concentration was present in the body (carcass). […]

[2] = tested on: monkey SCI model; experiment: Monkey SCI model: tissue sections and immunohistochemistry; format: in vivo, cynomolgus macaques (Macaca fascicularis)
Description: For the nonhuman primate SCI model, female cynomolgus macaques were anesthetized with Zoletil 50 (8–10 mg/kg; Virbac Korea) and isotropy 100. Laminectomy was performed at thoracic level 8 under X-ray guidance, and the SCI model was established using a vessel clip (Micro Serrefine Clamp, 1805501, Fine Science Tools; 60 g pressure, 19 mm) applied for 10 min. After surgery, the monkeys were monitored until full recovery, with precautions taken to prevent hypothermia and dehydration. For pressure ulcers, antibacterial drugs were administered, and sugar therapy was applied as needed.
To determine the appropriate dosing for macaques, interspecies dose translation was performed according to the U.S. FDA’s Guidance for Industry (2005), using body surface area (BSA)-based conversion with species-specific Km values.
On the basis of this calculation, two doses were selected: 3 mg/kg/day (~60% of the HED) for evaluating the minimal effective dose, and 10 mg/kg/day (approximately 2× HED) for assessing upper tolerability and therapeutic margin.
Immunohistochemistry was performed as previously described.[70] The tissue sections were blocked and treated with primary antibodies. After overnight incubation at 4 °C, species-specific fluorescent secondary antibodies were applied for visualization. The tissue sections were then stained with 4’,6-diamidino-2-phenylindole (DAPI) during mounting. This protocol allows a detailed assessment of various cellular markers involved in SCI and recovery processes.

[3] = tested on: Parkinson’s disease mouse model; conditions: cited from earlier work
[4] = tested on: GABAA receptor-mediated currents from lamina II dorsal horn neurons; experiment: Tonic GABA current recording; format: in vivo, rat; conditions: SCI + KDS 2w, PI 10w
[5] = design: method as in PMID 30906861; conditions: cited from earlier work
[6] = tested on: rat SCI model; experiment: TEM and TB staining of rat spinal cord (myelination); format: in vivo, Sprague-Dawley (SD) rats
Description: Spinal cord tissues were prefixed in Karnovsky’s fixative (2% glutaraldehyde, 2% paraformaldehyde in 0.1 M phosphate buffer) overnight at 4 °C. After postfixation in 1% osmium tetroxide (OsO4), the samples were dehydrated through a graded ethanol series and embedded in epoxy resin.
For TB staining, 250–300 nm semi-thin sections were obtained via an ultramicrotome (Leica Ultracut UCT, Leica Microsystems, Austria), stained with 0.5% toluidine blue, and imaged using a light microscope (Olympus IX71).
For TEM, 80–100 nm ultrathin sections were cut using a diamond knife (Diatome, Switzerland), mounted on 300-mesh Gilder grids, and stained with 6% uranyl acetate and lead citrate. Images were acquired using a transmission electron microscope (JEM 1011, JEOL, Tokyo, Japan) as previously described.
All TB and TEM analyses were performed on spinal cord tissues collected at the lesion epicenter, where myelination is most affected by injury.

[7] = GLP toxicity tests in monkeys
[8] = tested on: rat SCI model; experiment: Western blot and GABA ELISA of rat spinal cord tissue; format: in vivo; conditions: PI 10w
Description: Approximately 24 h after drug treatment, primary mouse spinal cord astrocytes or spinal cord tissues were lysed in RIPA buffer (MB030-0050, ROCKLAND) containing protease and phosphatase inhibitors (1861280, Thermo Fisher Scientific). The protein concentration was measured using the Pierce™ BCA Protein Assay Kit (Thermo Fisher Scientific). Each sample was then used separately for Western blot or GABA ELISA analysis. Western blot analysis was performed following established protocols,[73],[74] with 20 μg of spinal cord tissue or 10 μg of astrocyte protein samples were loaded onto SDS-PAGE gels, transferred to PVDF membranes, and blocked with 5% non-fat milk. The membranes were incubated overnight at 4 °C with primary antibodies, including rabbit anti-MAOB (1:1000, Abcam), rabbit anti-BDNF (1:1000, Abcam), mouse anti-TrkB (1:1000, R&D Systems), and rabbit anti-β-actin (1:1000, Cell Signaling Technology). […] The bands were visualized using enhanced chemiluminescence, and band intensity was quantified using ImageJ software. For enzyme-linked immunosorbent assay (ELISA), GABA quantification was performed using an ELISA kit (BA-E-2500, ImmuSmol) according to the manufacturer’s instructions, utilizing 20 μg of protein extracted from spinal cord tissues.

Chain of hERG (Q12809 whole entry): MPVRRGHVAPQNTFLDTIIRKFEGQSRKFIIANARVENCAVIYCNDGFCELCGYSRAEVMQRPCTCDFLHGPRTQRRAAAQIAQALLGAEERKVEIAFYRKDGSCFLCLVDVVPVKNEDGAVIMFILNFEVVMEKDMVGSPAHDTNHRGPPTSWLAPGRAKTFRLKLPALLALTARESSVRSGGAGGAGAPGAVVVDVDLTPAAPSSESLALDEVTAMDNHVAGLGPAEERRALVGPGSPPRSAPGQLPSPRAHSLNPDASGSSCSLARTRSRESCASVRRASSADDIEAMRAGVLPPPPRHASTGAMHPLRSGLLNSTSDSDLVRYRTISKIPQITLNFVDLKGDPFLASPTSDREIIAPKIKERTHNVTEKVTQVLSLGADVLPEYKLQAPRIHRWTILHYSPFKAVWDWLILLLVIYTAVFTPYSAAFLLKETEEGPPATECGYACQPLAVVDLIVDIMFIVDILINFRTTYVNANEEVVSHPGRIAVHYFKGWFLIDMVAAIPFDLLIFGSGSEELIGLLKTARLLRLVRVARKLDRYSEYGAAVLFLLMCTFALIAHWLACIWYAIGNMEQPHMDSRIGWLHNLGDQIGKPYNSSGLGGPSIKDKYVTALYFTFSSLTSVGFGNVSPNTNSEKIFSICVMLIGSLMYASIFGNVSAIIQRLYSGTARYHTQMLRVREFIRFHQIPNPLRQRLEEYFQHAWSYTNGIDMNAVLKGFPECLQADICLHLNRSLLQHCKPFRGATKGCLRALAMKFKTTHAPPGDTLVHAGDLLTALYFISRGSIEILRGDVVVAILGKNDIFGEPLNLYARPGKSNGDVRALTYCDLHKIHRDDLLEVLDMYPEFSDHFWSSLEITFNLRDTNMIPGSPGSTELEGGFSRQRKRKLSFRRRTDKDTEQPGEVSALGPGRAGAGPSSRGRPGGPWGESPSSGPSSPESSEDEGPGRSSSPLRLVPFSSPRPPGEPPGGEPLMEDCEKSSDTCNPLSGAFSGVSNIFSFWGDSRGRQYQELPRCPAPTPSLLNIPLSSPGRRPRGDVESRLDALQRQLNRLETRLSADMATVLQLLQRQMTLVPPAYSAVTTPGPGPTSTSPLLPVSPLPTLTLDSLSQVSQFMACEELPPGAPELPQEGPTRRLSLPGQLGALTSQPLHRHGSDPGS

CS(=O)(=O)O.C[C@H](NCc1ccc(-c2ccc(C(F)(F)F)cc2)cc1)C(N)=O [KDS2010, (S)-2-(((4’-Trifluoromethylbiphenyl-4-yl)methyl)amino)propanamide methane-sulfonate]
IC50 [1]: 7.8 ± 1.7 µM | hematoma and cavity formation at the injury site ([2]; 3 or 10 mpk from the acute phase, PI 5w): significantly reduced | MAP2 intensity vs SCI + V ([2]; SCI + KDS 3 mpk, PI 5w): tended to increase | MAP2 intensity vs SCI + V ([2]; SCI + KDS 10 mpk, PI 5w): significantly greater | astrocytic MAOB ([2]; both KDS treatment groups (3 and 10 mpk), PI 5w): significantly reduced | pharmacologically active dose (PAD) ([2]; cynomolgus macaques, for 5 weeks): 3 mpk | motor impairment [3]: reverse | tonic GABA current density [4]: significantly recovered | permeability across the blood‒brain barrier [5]: highly permeable | myelination (TEM) ([6]; SCI + KDS 2w at PI 10w): fully recovered | number of myelinated axons ([6]; SCI + KDS 2w, PI 2-10w): gradual increase | density of cavities ([6]; SCI + KDS 2w, TB staining, PI 2-10w): gradual decrease | adverse effects ([7]; oral 0, 10, 20, and 40 mg/kg for 4 weeks, 2 weeks recovery): no adverse effects related to the test substance | mortality ([7]; oral 2 weeks, 100 mg/kg/day male and female, 50 mg/kg/day male): a dying condition or mortality was observed | GABA levels (ELISA) ([8]; SCI + KDS 1 d/Re): significant reduction | MAOB protein level (Western blotting) ([8]; SCI+KDS 1d/Re vs SCI+V): significantly reduced
